Common to all, as to format: biochemical
Assay [1] addresses T1, angiotensin I converting enzyme (ACE) (Rattus norvegicus, UniProt P47820).
T1 construct: ACE is purified from rat testicle; from tissue; host or cells: rat testicle
T1 sequence (P47820 1-775 isoform P47820-2): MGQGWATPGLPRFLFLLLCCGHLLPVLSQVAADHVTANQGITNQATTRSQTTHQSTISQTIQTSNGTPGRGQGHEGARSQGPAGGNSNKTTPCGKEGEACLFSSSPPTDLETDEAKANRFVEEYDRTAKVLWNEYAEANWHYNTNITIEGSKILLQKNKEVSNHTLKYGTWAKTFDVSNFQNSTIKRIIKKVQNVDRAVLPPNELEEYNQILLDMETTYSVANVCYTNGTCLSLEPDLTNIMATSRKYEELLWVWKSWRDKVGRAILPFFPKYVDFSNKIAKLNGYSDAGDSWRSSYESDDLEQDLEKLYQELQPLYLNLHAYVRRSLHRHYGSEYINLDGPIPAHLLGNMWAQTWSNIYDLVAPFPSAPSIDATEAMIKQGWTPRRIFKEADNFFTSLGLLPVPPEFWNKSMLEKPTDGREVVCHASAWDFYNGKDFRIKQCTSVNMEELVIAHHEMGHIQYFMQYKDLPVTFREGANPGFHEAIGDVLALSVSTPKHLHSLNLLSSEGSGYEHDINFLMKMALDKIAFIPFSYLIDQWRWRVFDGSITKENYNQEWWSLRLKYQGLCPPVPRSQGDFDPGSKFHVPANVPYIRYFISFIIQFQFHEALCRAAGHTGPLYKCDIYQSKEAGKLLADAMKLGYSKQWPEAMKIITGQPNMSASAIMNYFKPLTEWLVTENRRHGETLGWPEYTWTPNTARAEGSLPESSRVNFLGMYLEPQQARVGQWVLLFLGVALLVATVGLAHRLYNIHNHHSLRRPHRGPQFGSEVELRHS
The experiment in a line: Inhibition of angiotensin I converting enzyme (substrate N-Cbz-Phe-His-Leu). Particulars: ACE purified from rat testicle. The method, then: ACE is purified from rat testicle according to the procedure described by Pantaliano et al. (Biochemistry, 1984, 23, pp. 1037-1042).
The enzyme activity is measured using the synthetic substrate N-Cbz-Phe-His-Leu, Km=[…] (Piquilloud Y. et al., Biochem. Biophys. Acta, 1970, 206, pp. 136-142).

Another assay has as its target T2, ECE-1c (Homo sapiens, UniProt P42892).
T2 construct: made in house; host or cells: Cos-7 cells (pcDNA3 vector, electroporation); membrane fraction extracted with 1% beta-octylglucose
T2 sequence (P42892 1-754 isoform P42892-3): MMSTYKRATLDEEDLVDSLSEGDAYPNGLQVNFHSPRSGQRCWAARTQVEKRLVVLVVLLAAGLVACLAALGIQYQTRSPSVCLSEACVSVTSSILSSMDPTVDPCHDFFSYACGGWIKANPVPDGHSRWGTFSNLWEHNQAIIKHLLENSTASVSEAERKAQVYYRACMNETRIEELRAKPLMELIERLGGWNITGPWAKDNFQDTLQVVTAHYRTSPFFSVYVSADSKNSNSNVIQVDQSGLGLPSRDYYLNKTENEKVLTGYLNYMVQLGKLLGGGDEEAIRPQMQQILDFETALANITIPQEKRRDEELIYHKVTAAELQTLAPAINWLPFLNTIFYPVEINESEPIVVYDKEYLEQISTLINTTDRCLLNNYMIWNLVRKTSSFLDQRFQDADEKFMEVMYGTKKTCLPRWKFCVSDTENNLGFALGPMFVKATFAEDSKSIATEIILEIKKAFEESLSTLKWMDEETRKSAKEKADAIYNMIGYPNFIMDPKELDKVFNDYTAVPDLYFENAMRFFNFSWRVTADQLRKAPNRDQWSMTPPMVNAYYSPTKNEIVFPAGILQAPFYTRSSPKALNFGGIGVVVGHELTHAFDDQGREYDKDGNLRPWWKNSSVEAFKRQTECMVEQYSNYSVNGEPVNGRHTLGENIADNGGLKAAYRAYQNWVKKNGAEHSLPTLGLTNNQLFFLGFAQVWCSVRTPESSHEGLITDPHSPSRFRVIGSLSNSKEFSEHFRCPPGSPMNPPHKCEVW
The assay can be described thus: Inhibition of endothelin converting enzyme (radiolabelled BigET-1 (19-35) substrate). The following applies: ECE-1c expressed in Cos-7 cells; preincubated 10 minutes at 37° C., pH 6.5; read-out: Ki, inhibition of big endothelin converting enzyme. The procedure: The cDNA of ECE-1c (membrane form of the enzyme, Biochem. J., 1997, 328, pp. 871-877), was inserted into a pcDNA3 eucaryotic expression vector and then transfected by electroporation and expressed in Cos-7 cells.
To measure the ECE activity, the cells are homogenised and the membrane fraction is recovered. The enzyme is extracted by dissolution in β-octylglucose (1%).
The peptide BigET-1 (19-35) was prepared by solid phase synthesis in Fmoc chemistry and purified by semi-preparative HPLC. The propionylation of the peptide was effected by the action of N-succinimidyl-[2,3-^3H]-propionate on the peptide BigET-1 (19-35) and the radiolabelled product was purified by HPLC. The specific activity of the substrate is 97 Ci/mmole.
ECE-1c (10 μl of a solution diluted to 1/10) is dissolved in 400 μl of Trismaleate 50 mM, pH 6.5, in the presence of 250 mM NaCl. The reaction is initiated by the addition of 10 μl of the radioactive substrate (final concentration 1×10^−9 M). After incubation for 1 hour at 37° C., the reaction is stopped by the addition of 600 μl of ethyl acetate. The metabolite is separated from the intact substrate by liquid—liquid extraction. The radioactivity of the metabolite is determined by liquid scintillation. The kinetic constants of the substrate are: Km=[…] and Vmax=2.98±0.24 mmol/mg. prot./min.
The controls of 0% and 100% degradation are obtained, respectively, by incubation of the substrate with the inactivated enzyme and with the native enzyme in the absence of inhibitors.

Another assay deals with T3, Neutral endopeptidase (Oryctolagus cuniculus, UniProt P08049).
T3 construct: Neutral endopeptidase is purified from rabbit kidney; from tissue; host or cells: rabbit kidney
T3 sequence (P08049 1-750): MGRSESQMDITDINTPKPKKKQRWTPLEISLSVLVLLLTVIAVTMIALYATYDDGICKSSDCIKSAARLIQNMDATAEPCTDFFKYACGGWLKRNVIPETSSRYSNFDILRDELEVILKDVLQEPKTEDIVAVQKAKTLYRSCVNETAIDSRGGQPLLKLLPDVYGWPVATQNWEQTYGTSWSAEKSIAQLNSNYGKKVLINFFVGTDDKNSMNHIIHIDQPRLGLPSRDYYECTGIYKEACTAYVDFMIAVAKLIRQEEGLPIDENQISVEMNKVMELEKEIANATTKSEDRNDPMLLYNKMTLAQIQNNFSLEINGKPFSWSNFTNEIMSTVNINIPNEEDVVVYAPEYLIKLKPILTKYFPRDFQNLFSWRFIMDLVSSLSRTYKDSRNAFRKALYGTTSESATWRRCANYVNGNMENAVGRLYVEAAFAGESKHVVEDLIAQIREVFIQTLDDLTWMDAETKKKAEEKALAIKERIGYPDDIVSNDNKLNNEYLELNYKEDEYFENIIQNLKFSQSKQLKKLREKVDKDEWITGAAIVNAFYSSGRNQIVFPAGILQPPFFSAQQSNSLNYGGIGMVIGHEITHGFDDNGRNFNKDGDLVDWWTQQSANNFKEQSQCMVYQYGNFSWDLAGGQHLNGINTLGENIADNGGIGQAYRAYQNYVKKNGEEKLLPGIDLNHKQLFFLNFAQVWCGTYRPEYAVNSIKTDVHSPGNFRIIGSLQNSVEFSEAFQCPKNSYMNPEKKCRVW
The experiment in a line: Inhibition of neutral endopeptidase (fluorescent substrate DGNPA). Particulars: NEP purified from rabbit kidney. The source says:
Neutral endopeptidase is purified from rabbit kidney according to the procedure described by Aubry et al. (Biochem. Cell Biol., 1987, 65, pp. 1037-1042).

The values that follow come from patent publication US6716852B2, “Amino acid derivatives and use thereof as NEP, ACE and ECE inhibitors” (Les Laboratories Servier, priority 2000, dated 2004).

Broadly, the Ki is a measure of affinity in units of concentration, obtained from inhibition or displacement.

As to `O=C(N[C@@H](Cc1c[nH]c2ccccc12)C(=O)O)C(CS)C1CCc2cc(Br)ccc21` (stereo partly drawn) [13 (2S-3R-4S), N-[2-(5-Bromo-2,3-dihydro-1H-inden-1-yl)-3-mercaptopropanoyl]-tryptophan], the Ki was 4.09 ± 0.49 nM in assay [1], 24.4 ± 1.4 nM on ECE-1c and 3.28 ± 0.35 nM at Neutral endopeptidase.
`O=C(N[C@@H](Cc1c[nH]c2ncccc12)C(=O)O)C(CS)C1CCc2cc(Br)ccc21` (stereo partly drawn) [33 (2S-3R-4S), N-[2-(5-Bromo-2,3-dihydro-1H-inden-1-yl)-3-mercaptopropanoyl]-3-(1H-pyrrolo [2,3-b]pyridin-3-yl)alanine]: the Ki in assay [1] stood at 1.32 ± 0.17 nM; at ECE-1c, 23.3 ± 3.2 nM; on Neutral endopeptidase, 2.91 ± 0.67 nM.
In the same order, the values of `O=C(N[C@@H](Cc1c[nH]c2c1ccc1cccnc12)C(=O)O)C(CS)C1CCc2cc(Br)ccc21` (stereo partly drawn) [63 (2S-3R-4S), N-[2-(5-Bromo-2,3-dihydro-1H-inden-1-yl)-3-mercaptopropanoyl]-3-(1H-pyrrolo[3,2-h]quinolin-3-yl)alanine] are 3.7 ± 0.38 nM, 21.2 ± 2.5 nM and 10.2 ± 0.3 nM.
